Reference: patent US20020165233A1, “Quinoxaline containing medicaments for post exposure prophylaxis of an HIV infection” (priority 1999, published 2002)

Tested on: RT-SHIV
Test: Quantitative virus isolation (QVI) from PBMC co-cultured with C8166 and viral RNA PCR of culture supernatant
Type: in vivo, rhesus monkeys
Set-up: key to viral RNA PCR of QVI culture supernatant: +=positive; −=negative
Description: Nine rhesus monkeys (male, 2 years old, 2-3 kg) were seronegative for SIV, Simian T cell Leukemia Virus (STLV), B virus and Type D retroviruses. 15 mg/kg body weight of COMPOUND A was subcutaneously administered into animals twice a day (12 h interval) for 28 d. Animals were divided into three groups. All animals were intravenously administered with 100 TCID50 of RT-SHIV The first group consisted of three animals treated with COMPOUND A from 8 h post exposure for 28 d. The second group of animals was treated with COMPOUND A from 24 h post exposure for 28 d. The third group (control) received the solvent that was used to dissolve COMPOUND A (PEG400:glycerol:water=[…]) from 8 h post exposure for 28 d.
Blood was collected from all the animals either just before or 2 h after the drug administration on 0, 3, 7, 10, 14, 21, 29 d post exposure in order to check the drug concentration, otherwise in intervals of 2 to 8 weeks. Biopsy of inguinal lymph nodes was conducted on 17 d or 18 d and 8 weeks post exposure in two animals per group. Cerebrospinal fluid (CSF) was collected from the animals just before biopsy.
Viral RNA was detected from 7 or 10 d post exposure up to 40 weeks post exposure in all plasma specimen from two animals (FIG. 2). […] While in two animals plasma viral RNA levels persisted around 10^5 copy/ml after a moderate reduction occurred at 4 weeks post exposure, viral RNA levels in one animal declined to about 10^3 copy/ml after 15 weeks post exposure (FIG. 2). The RT-SHIV infection in PIBMC was monitored by quantitative virus isolation (QVI) and quantitative PCR assay of proviral DNA. Serially diluted PBMC were co-cultured with C8166 to determine the minimal PBMC cell number to provoke a productive infection of C8166 cells. The number from the QVI test indicates infectious cells per one million PBMC. QVI results were consistent with plasma viral RNA levels. The numbers indicates the results of QVI. A + or − on the right indicates results of viral RNA PCR assay for the detection of virus in culture supernatant. +=positive, −=negative.

[1] = animal #1, 15 mg/kg s.c. b.i.d. 8h thru 28 d post exp, week 11 post exp.
[2] = animal #3, 15 mg/kg s.c. b.i.d. 24h thru 28 d post exp., week 6 post exp.
[3] = animal #3, 15 mg/kg s.c. b.i.d. 24h thru 28 d post exp., week 8 post exp.
[4] = animal #3, 15 mg/kg s.c. b.i.d. 24h thru 28 d post exp., week 11 post exp.
[5] = animal #4, 15 mg/kg s.c. b.i.d. 24h thru 28 d post exp., week 8 post exp.
[6] = animal #10, 15 mg/kg s.c. b.i.d. 8h thru 28 d post exp, week 6 post exp.
[7] = animal #10, 15 mg/kg s.c. b.i.d. 8h thru 28 d post exp, week 8 post exp.
[8] = animal #10, 15 mg/kg s.c. b.i.d. 8h thru 28 d post exp, week 11 post exp.
[9] = animal #11, 15 mg/kg s.c. b.i.d. 24h thru 28 d post exp., week 8 post exp.
[10] = animal #11, 15 mg/kg s.c. b.i.d. 24h thru 28 d post exp., week 11 post exp.

`CC[C@H]1C(=O)Nc2ccc(F)cc2N1C(=O)OC(C)C` [Compound A, (3S)-ethyl-6-fluoro-4-isopropyloxycarbonyl-3,4-dihydroquinoxalin-2(1H)-one] was tested, and the “viral RNA PCR of QVI culture supernatant” value (animal #1, 15 mg/kg s.c. b.i.d. 8h thru 28 d post exp, week 8 post exp.) was “+”, the “Quantitative virus isolation (QVI)” value [1] was 4 infectious cells per one million PBMC and the “viral RNA PCR of QVI culture supernatant” value [1] was “+”. The “viral RNA PCR of QVI culture supernatant” value (animal #1, 15 mg/kg s.c. b.i.d. 8h thru 28 d post exp, week 15 post exp.) was “−/−”, the “viral RNA PCR of QVI culture supernatant” value (animal #3, 15 mg/kg s.c. b.i.d. 24h thru 28 d post exp., week 2 post exp.) was “−/−” and the “Quantitative virus isolation (QVI)” value [2] was 16 infectious cells per one million PBMC. For the same compound, the “viral RNA PCR of QVI culture supernatant” value [2] was “+”, the “Quantitative virus isolation (QVI)” value [3] was 16 infectious cells per one million PBMC and the “viral RNA PCR of QVI culture supernatant” value [3] was “+”. For the same compound, the “Quantitative virus isolation (QVI)” value [4] was 16 infectious cells per one million PBMC, the “viral RNA PCR of QVI culture supernatant” value [4] was “+” and the “viral RNA PCR of QVI culture supernatant” value (animal #3, 15 mg/kg s.c. b.i.d. 24h thru 28 d post exp., week 15 post exp.) was “−/−”. For the same compound, the “viral RNA PCR of QVI culture supernatant” value (animal #4, 15 mg/kg s.c. b.i.d. 24h thru 28 d post exp., week 2 post exp.) was “−/−”, the “viral RNA PCR of QVI culture supernatant” value (animal #4, 15 mg/kg s.c. b.i.d. 24h thru 28 d post exp., week 6 post exp.) was “−/−” and the “Quantitative virus isolation (QVI)” value [5] was 1 infectious cells per one million PBMC. The “viral RNA PCR of QVI culture supernatant” value [5] was “+”, the “viral RNA PCR of QVI culture supernatant” value (animal #4, 15 mg/kg s.c. b.i.d. 24h thru 28 d post exp., week 11 post exp.) was “−/−” and the “viral RNA PCR of QVI culture supernatant” value (animal #4, 15 mg/kg s.c. b.i.d. 24h thru 28 d post exp., week 15 post exp.) was “−/−”. For the same compound, the “viral RNA PCR of QVI culture supernatant” value (animal #5, 15 mg/kg s.c. b.i.d. 8h thru 28 d post exp, week 2 post exp.) was “−/−”, the “viral RNA PCR of QVI culture supernatant” value (animal #5, 15 mg/kg s.c. b.i.d. 8h thru 28 d post exp, week 6 post exp.) was “−/−” and the “viral RNA PCR of QVI culture supernatant” value (animal #5, 15 mg/kg s.c. b.i.d. 8h thru 28 d post exp, week 8 post exp.) was “−/−”. The “viral RNA PCR of QVI culture supernatant” value (animal #5, 15 mg/kg s.c. b.i.d. 8h thru 28 d post exp, week 11 post exp.) was “−/−”, the “viral RNA PCR of QVI culture supernatant” value (animal #5, 15 mg/kg s.c. b.i.d. 8h thru 28 d post exp, week 15 post exp.) was “−/−” and the “viral RNA PCR of QVI culture supernatant” value (animal #10, 15 mg/kg s.c. b.i.d. 8h thru 28 d post exp, week 2 post exp.) was “−/−”. For the same compound, the “Quantitative virus isolation (QVI)” value [6] was 1 infectious cells per one million PBMC, the “viral RNA PCR of QVI culture supernatant” value [6] was “+” and the “Quantitative virus isolation (QVI)” value [7] was 16 infectious cells per one million PBMC. For the same compound, the “viral RNA PCR of QVI culture supernatant” value [7] was “+”, the “Quantitative virus isolation (QVI)” value [8] was 4 infectious cells per one million PBMC and the “viral RNA PCR of QVI culture supernatant” value [8] was “+”. For the same compound, the “viral RNA PCR of QVI culture supernatant” value (animal #10, 15 mg/kg s.c. b.i.d. 8h thru 28 d post exp, week 15 post exp.) was “−/−”, the “viral RNA PCR of QVI culture supernatant” value (animal #11, 15 mg/kg s.c. b.i.d. 24h thru 28 d post exp., week 2 post exp.) was “−/−” and the “viral RNA PCR of QVI culture supernatant” value (animal #11, 15 mg/kg s.c. b.i.d. 24h thru 28 d post exp., week 6 post exp.) was “−/−”. The “Quantitative virus isolation (QVI)” value [9] was 4 infectious cells per one million PBMC, the “viral RNA PCR of QVI culture supernatant” value [9] was “+” and the “Quantitative virus isolation (QVI)” value [10] was 4 infectious cells per one million PBMC. The “viral RNA PCR of QVI culture supernatant” value [10] was “+” and the “viral RNA PCR of QVI culture supernatant” value (animal #11, 15 mg/kg s.c. b.i.d. 24h thru 28 d post exp., week 15 post exp.) was “−/−”.
